# From patent US11306078B2, “Piperidine CXCR7 receptor modulators” (IDORSIA PHARMACEUTICALS LTD., priority 2016, dated 2022)
# Molecular target: human chemokine receptor CXCR7 (Homo sapiens (Human), UniProt P25106)
# Experiment: Tango CXCR7-bla U2OS beta-arrestin recruitment assay (beta-lactamase reporter, FRET), antagonism of CXCL12/SDF1-α;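 further: compounds preincubated 15 min before CXCL12 addition, then 22 h at 37 °C, FRET emission ratio read with CCF4-AM substrate after 2 h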
# Type: cell-based
# Settings: antagonistic effect on CXCR7; Tango CXCR7-bla U2OS cells, CXCL12/SDF1-α at its EC80
# human chemokine receptor CXCR7, sequence (P25106 whole entry): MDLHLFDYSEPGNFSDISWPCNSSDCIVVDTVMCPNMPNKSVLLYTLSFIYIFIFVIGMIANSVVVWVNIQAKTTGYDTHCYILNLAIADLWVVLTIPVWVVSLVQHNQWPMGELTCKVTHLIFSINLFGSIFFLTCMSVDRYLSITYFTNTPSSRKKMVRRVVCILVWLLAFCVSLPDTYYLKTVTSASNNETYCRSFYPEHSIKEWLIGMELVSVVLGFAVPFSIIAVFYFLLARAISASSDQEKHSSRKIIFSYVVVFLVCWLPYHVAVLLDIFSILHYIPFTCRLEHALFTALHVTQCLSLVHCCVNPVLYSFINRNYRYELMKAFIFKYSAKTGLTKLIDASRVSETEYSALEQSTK
row,SMILES,IC50
1,O=C(N[C@H]1CCN(CC2CC2)C[C@@H]1C(=O)NCCc1ccccc1Cl)c1cc(-c2ccc(F)cc2F)on1 [Example 4.065],14 nM
2,CCN(CC)C(=O)[C@H]1CN(CC2CC2)CC[C@@H]1NC(=O)c1cc(-c2ccc(F)cc2F)on1 [Example 4.066],320 nM
3,CCN(CC)C(=O)[C@@H]1CN(CC2CC2)CC[C@H]1NC(=O)c1cc(-c2ccc(F)cc2F)on1 [Example 4.071],212 nM
4,COc1ccccc1C(C)NC(=O)[C@H]1CN(CC2CC2)CC[C@@H]1NC(=O)c1cc(-c2ccc(F)cc2F)on1 (some centres unmarked) [Example 4.072],16 nM
5,CCOC(=O)[C@H](NC(=O)[C@H]1CN(CC2CC2)CCC1NC(=O)c1cc(-c2ccc(F)cc2F)on1)c1ccccc1 (some centres unmarked) [Example 4.073],173 nM
6,COc1ccccc1C1(NC(=O)[C@H]2CN(CC3CC3)CC[C@@H]2NC(=O)c2cc(-c3ccc(F)cc3F)on2)CC1 [Example 4.074],27 nM
7,C[C@@H](NC(=O)[C@H]1CN(CC2CC2)CC[C@@H]1NC(=O)c1cc(-c2ccc(F)cc2F)on1)c1cccc(Br)c1 [Example 4.075],2 nM
8,O=C(N[C@H]1CCN(C2CCC2)C[C@@H]1C(=O)NC1(c2ncccc2F)CC1)c1cc(-c2ccc(F)cc2F)on1 [Example 4.082],20 nM
9,CC(C)(NC(=O)[C@H]1CN(C2CCC2)CC[C@@H]1NC(=O)c1cc(-c2ccc(F)cc2F)on1)c1ncccn1 [Example 4.083],11 nM
10,C[C@@H](NC(=O)[C@H]1CN(C2CCC2)CC[C@@H]1NC(=O)c1cc(-c2ccc(F)cc2F)on1)c1ncccn1 [Example 4.084],232 nM
11,C[C@@H](NC(=O)[C@H]1CN(C2CCC2)CC[C@@H]1NC(=O)c1cc(-c2ccc(F)cc2F)on1)c1ncccn1 [Example 4.084b],77 nM
12,O=C(N[C@@H]1CCN(C2CCC2)C[C@H]1C(=O)NC1(Cc2ccccc2)COC1)c1cc(-c2ccc(F)cc2F)on1 [Example 4.085],61 nM
13,Cc1cccnc1C(C)(C)CNC(=O)[C@@H]1CN(C2CCC2)CC[C@H]1NC(=O)c1cc(-c2ccc(F)cc2F)on1 [Example 4.086],472 nM
14,CC(C)(CNC(=O)[C@@H]1CN(C2CCC2)CC[C@H]1NC(=O)c1cc(-c2ccc(F)cc2F)on1)c1ccccn1 [Example 4.087],342 nM
15,Cc1ccccc1C1(NC(=O)[C@H]2CN(C3CCC3)CC[C@@H]2NC(=O)c2cc(-c3ccc(F)cc3F)on2)CC1 [Example 4.088],138 nM
16,O=C(N[C@@H]1CCN(C2CCC2)C[C@H]1C(=O)NC1(c2ccc(F)cc2)COC1)c1cc(-c2ccc(F)cc2F)on1 [Example 4.089],299 nM
17,CC(C)(CNC(=O)[C@@H]1CN(C2CCC2)CC[C@H]1NC(=O)c1cc(-c2ccc(F)cc2F)on1)c1ccccc1Cl [Example 4.091],134 nM
18,O=C(N[C@@H]1CCN(C2CCC2)C[C@H]1C(=O)NCC1(c2ccc(Cl)cc2)CC1)c1cc(-c2ccc(F)cc2F)on1 [Example 4.092],126 nM
19,O=C(N[C@@H]1CCN(C2CCC2)C[C@H]1C(=O)NCC1(c2ccccn2)CC1)c1cc(-c2ccc(F)cc2F)on1 [Example 4.093],165 nM
20,O=C(N[C@@H]1CCN(C2CCC2)C[C@H]1C(=O)NC1(c2cccc(Cl)c2)COC1)c1cc(-c2ccc(F)cc2F)on1 [Example 4.094],201 nM
21,CCN1CC[C@H](NC(=O)c2cc(-c3ccc(F)cc3F)on2)[C@@H](C(=O)N[C@H](C)c2cccc(C)n2)C1 [Example 4.095],57 nM
22,CCN1CC[C@H](NC(=O)c2cc(-c3ccc(F)cc3F)on2)[C@@H](C(=O)NC(C)(C)c2ncccn2)C1 [Example 4.096],33 nM
23,O=C(N[C@H]1CCN(C2CCC2)C[C@@H]1C(=O)NC1(c2cccc(Cl)c2)COC1)c1cc(-c2ccc(F)cc2F)on1 [Example 4.097],80 nM
24,C[C@@H](NC(=O)[C@H]1CN(C2CCC2)CC[C@@H]1NC(=O)c1cc(-c2ccc(F)cc2F)on1)c1ncccc1F [Example 4.098],18 nM
25,C[C@@H](NC(=O)[C@H]1CN(C2CCC2)CC[C@@H]1NC(=O)c1cc(-c2ccc(F)cc2F)on1)c1ncccc1F [Example 4.098a],12 nM
26,CC(C)(C)N1CC[C@@H](NC(=O)c2cc(-c3ccc(F)cc3F)on2)[C@H](C(=O)NC2(c3ncccn3)CC2)C1 [Example 4.101],71 nM
27,CC(C)(C)N1CC[C@@H](NC(=O)c2cc(-c3ccc(F)cc3F)on2)[C@H](C(=O)NC2(c3ncccn3)CC2)C1 [Example 4.101a],18 nM
28,CC(C)(C)N1CC[C@H](NC(=O)c2cc(-c3ccc(F)cc3F)on2)[C@@H](C(=O)NC2(c3ncccn3)CC2)C1 [Example 4.101b],712 nM

# Further lines, results first:
row,IC50,SMILES
1,753 nM,Cc1cccc(CNC(=O)[C@H]2CN(CC3CC3)CC[C@@H]2NC(=O)c2cc(-c3ccc(F)cc3F)on2)n1 [Example 4.064]
2,20 nM,O=C(N[C@H]1CCN(CC2CC2)C[C@@H]1C(=O)N1CC[C@@H]1c1ccccc1)c1cc(-c2ccc(F)cc2F)on1 [Example 4.067a]
3,2 nM,O=C(N[C@@H]1CCN(CC2CC2)C[C@H]1C(=O)N1CC[C@@H]1c1ccccc1)c1cc(-c2ccc(F)cc2F)on1 [Example 4.067b]
4,1 nM,O=C(N[C@H]1CCN(CC2CC2)C[C@@H]1C(=O)NC1(c2cccc(Cl)c2)CC1)c1cc(-c2ccc(F)cc2F)on1 [Example 4.068]
5,153 nM,CON(C)C(=O)[C@@H]1CN(CC2CC2)CC[C@H]1NC(=O)c1cc(-c2ccc(F)cc2F)on1 [Example 4.069]
6,97 nM,O=C(N[C@H]1CCN(CC2CC2)C[C@@H]1C(=O)NC1(c2ccccc2O)CC1)c1cc(-c2ccc(F)cc2F)on1 [Example 4.076]
7,4 nM,O=C(N[C@H]1CCN(CC2CC2)C[C@@H]1C(=O)NC1(c2nccc[n+]2[O-])CC1)c1cc(-c2ccc(F)cc2F)on1 [Example 4.077]
8,64 nM,O=C(NC1CCN(CC2CC2)CC1C(=O)N1CCCC1c1ncccn1)c1cc(-c2ccc(F)cc2F)on1 (centres unmarked) [Example 4.078]
9,15 nM,O=C(N[C@H]1CCN(CC2CC2)C[C@@H]1C(=O)N1CCCC1c1ncccn1)c1cc(-c2ccc(F)cc2F)on1 (some centres unmarked) [Example 4.078b]
10,186 nM,O=C(N[C@H]1CCN(CC2CC2)C[C@@H]1C(=O)N1CC[C@@H]1c1ncccn1)c1cc(-c2ccc(F)cc2F)on1 [Example 4.079a]
11,18 nM,O=C(N[C@@H]1CCN(CC2CC2)C[C@H]1C(=O)N1CC[C@@H]1c1ncccn1)c1cc(-c2ccc(F)cc2F)on1 [Example 4.079b]
12,851 nM,CC(NC(=O)[C@H]1CN(CC2CC2)CC[C@@H]1NC(=O)c1cc(-c2ccc(F)cc2F)on1)c1ncccn1 (some centres unmarked) [Example 4.080a]
13,15 nM,CC(NC(=O)[C@@H]1CN(CC2CC2)CC[C@H]1NC(=O)c1cc(-c2ccc(F)cc2F)on1)c1ncccn1 (some centres unmarked) [Example 4.080b]
14,426 nM,O=C(N[C@H]1CCN(CC2CC2)C[C@@H]1C(=O)NC1(c2cncnc2)CC1)c1cc(-c2ccc(F)cc2F)on1 [Example 4.081]
15,852 nM,O=C(N[C@@H]1CCN(CC2CC2)C[C@H]1C(=O)NCc1ncccn1)c1cc(-c2ccc(F)cc2F)on1 [Example 4.099]
16,1 nM,CC(C)(NC(=O)[C@H]1CN(CC2CC2)CC[C@@H]1NC(=O)c1cc(-c2ccc(F)cc2F)on1)c1ncccn1 [Example 4.102]
